Data published in the supplement of paper PMC9938120.

Assays:
Experiment in all cases: drug sensitivity score (DSS3, normalised partial AUC of % inhibition dose-response) (DSS (score)); higher = more sensitive (stronger inhibition of viability); extreme values may be limits of the assay
[1] = tested on: FMOC27 (patient-derived low-grade serous ovarian cancer cells); conditions: 72 h; library: FO5A; assay format: 2D, 384-well, CellTiter-Glo
Procedure, shortened: (§1)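 The drug sensitivity score is calculated as a partial area under the percent-inhibition dose-response curve, divided by the log of the upper asymptote; higher scores mean more sensitive. For this score, early-passage (under 10) patient-derived ovarian cancer cells were exposed on 384-well flat clear-bottom plates to compounds at five concentrations across a 10,000-fold range for 72 h at 37 °C, 5% CO2. Viability was read with CellTiter-Glo and processed in Breeze.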

[2] = tested on: FMOC06 (patient-derived mucinous ovarian cancer cells); conditions: 72 h; library: FO5A; assay format: 2D, 384-well, CellTiter-Glo
Procedure, shortened: as §1

[3] = tested on: FMOC04 (patient-derived high-grade serous ovarian cancer cells); conditions: 72 h; library: FO5A; assay format: 2D, 384-well, CellTiter-Glo
Procedure, shortened: as §1

[4] = tested on: FMOC02_3 (patient-derived low-grade serous ovarian cancer cells); conditions: 72 h; library: FO5A; assay format: 2D, 384-well, CellTiter-Glo
Procedure, shortened: as §1

[5] = tested on: FMOC03 (patient-derived mucinous ovarian cancer cells); conditions: 72 h; library: FO5A; assay format: 2D, 384-well, CellTiter-Glo
Procedure, shortened: as §1

[6] = tested on: FMOC11 (patient-derived high-grade serous ovarian cancer cells); conditions: 72 h; library: FO5A; assay format: 2D, 384-well, CellTiter-Glo
Procedure, shortened: as §1

[7] = tested on: FMOC09 (patient-derived high-grade serous ovarian cancer cells); conditions: 72 h; library: FO5A; assay format: 2D, 384-well, CellTiter-Glo
Procedure, shortened: as §1

[8] = tested on: FMOC14 (patient-derived high-grade serous ovarian cancer cells); conditions: 72 h; library: FO5A; assay format: 2D, 384-well, CellTiter-Glo
Procedure, shortened: as §1

[9] = tested on: FMOC24 (patient-derived high-grade serous ovarian cancer cells); conditions: 72 h; library: FO5A; assay format: 2D, 384-well, CellTiter-Glo
Procedure, shortened: as §1

[10] = tested on: FMOC17 (patient-derived low-grade serous ovarian cancer cells); conditions: 72 h; library: FO5A; assay format: 2D, 384-well, CellTiter-Glo
Procedure, shortened: as §1

[11] = tested on: FMOC25_2 (patient-derived low-grade serous ovarian cancer cells); conditions: 72 h; library: FO5A; assay format: 2D, 384-well, CellTiter-Glo
Procedure, shortened: as §1

[12] = tested on: FMOC25_1 (patient-derived low-grade serous ovarian cancer cells); conditions: 72 h; library: FO4B; assay format: 2D, 384-well, CellTiter-Glo
Procedure, shortened: as §1

[13] = tested on: FMOC02_2 (patient-derived low-grade serous ovarian cancer cells); conditions: 72 h; library: FO5A; assay format: 2D, 384-well, CellTiter-Glo
Procedure, shortened: as §1

[14] = tested on: FMOC28 (patient-derived low-grade serous ovarian cancer cells); conditions: 72 h; library: FO5A; assay format: 2D, 384-well, CellTiter-Glo
Procedure, shortened: as §1

[15] = tested on: FMOC02_1 (patient-derived low-grade serous ovarian cancer cells); conditions: 72 h; library: FO5A; assay format: 2D, 384-well, CellTiter-Glo
Procedure, shortened: as §1

[16] = tested on: FMOC22 (patient-derived mucinous ovarian cancer cells); conditions: 72 h; library: FO5A; assay format: 2D, 384-well, CellTiter-Glo
Procedure, shortened: as §1

Row | Compound | drug sensitivity score [1] | drug sensitivity score [2] | drug sensitivity score [3] | drug sensitivity score [4] | drug sensitivity score [5] | drug sensitivity score [6] | drug sensitivity score [7] | drug sensitivity score [8] | drug sensitivity score [9] | drug sensitivity score [10] | drug sensitivity score [11] | drug sensitivity score [12] | drug sensitivity score [13] | drug sensitivity score [14] | drug sensitivity score [15] | drug sensitivity score [16]
1 | COc1cc2c(N3CCN(C(=O)Nc4ccc(OC(C)C)cc4)CC3)ncnc2cc1OCCCN1CCCCC1 [Tandutinib] | 0 | 0 | 0 | 0 | 0 | 0 | 0 | 0 | 0.75 | 0 | 0 | 0 | 0 | 1.4 | 0 | 0
2 | O[C@H]1CC[C@H](Nc2ncc3nc(Nc4c(F)cc(F)cc4F)n([C@H]4CCOC4)c3n2)CC1 [Tanzisertib] | 0.1 | 0 | 0 | 1.1 | 0 | 0 | 0 | 0 | 1.45 | 0.8 | 0 | 0 | 1.6 | 0 | 2.3 | 0.1
3 | C[C@@H](C(=O)O)c1ccc(-c2ccccc2)c(F)c1 [Tarenflurbil] | 0 | 0 | 0 | 0.3 | 0 | 0 | 0 | 0 | 1.05 | 0 | 0 | 0 | 0 | 0 | 0 | 0
4 | COc1cccc2c1c(O)c(C(=O)N(C)c1ccc(C(F)(F)F)cc1)c(=O)n2C [Tasquinimod] | 0.4 | 0 | 0 | 1 | 0 | 0 | 0 | 0 | 2.3 | 0 | 2.5 | 3.9 | 0 | 0 | 0 | 0
5 | CCN(c1cc(-c2ccc(CN3CCOCC3)cc2)cc(C(=O)NCc2c(C)cc(C)[nH]c2=O)c1C)C1CCOCC1 [Tazemetostat] | 0 | 0.5 | 0 | 0.1 | 0 | 0 | 0 | 0 | 0 | 0 | 0 | 0 | 0 | 0 | 0 | 0
6 | CNC(=O)c1cc(COc2nnc(Nc3ccc(Cl)cc3)c3ccoc23)ccn1 [Telatinib] | 0 | 0 | 0.05 | 0 | 0 | 0 | 0 | 0 | 0.4 | 2.5 | 0 | 0 | 1.7 | 0 | 1.2 | 0
7 | Cn1nnc2c(C(N)=O)ncn2c1=O [Temozolomide] | 0 | 0 | 0 | 0 | 0 | 0 | 0 | 0 | 0 | 0.2 | 0 | 0 | 0 | 0.8 | 0 | 0
8 | COc1cc([C@@H]2c3cc4c(cc3[C@@H](O[C@@H]3O[C@@H]5CO[C@@H](c6cccs6)O[C@H]5[C@H](O)[C@H]3O)[C@H]3COC(=O)[C@H]23)OCO4)cc(OC)c1O [Teniposide] | 0 | 0 | 0 | 0 | 0.5 | 0 | 0 | 0 | 2.75 | 0 | 0 | 6.4 | 0 | 0 | 0 | 2.5
9 | O=C1CCC(N2C(=O)c3ccccc3C2=O)C(=O)N1 (centres undefined) [Thalidomide] | 0.1 | 0 | 0 | 0 | 0 | 0 | 0 | 0 | 0 | 0 | 0 | 0 | 0 | 0 | 0 | 0
10 | O=c1sn(-c2cccc3ccccc23)c(=O)n1Cc1ccccc1 [Tideglusib] | 0 | 0 | 0 | 0 | 0 | 0 | 0 | 0 | 0 | 0 | 0 | 0.3 | 1 | 0 | 0 | 0
11 | Cn1cncc1[C@@](N)(c1ccc(Cl)cc1)c1ccc2c(c1)c(-c1cccc(Cl)c1)cc(=O)n2C [Tipifarnib] | 3.3 | 8.8 | 4.45 | 9.5 | 6 | 5.3 | 2.2 | 3.5 | 4.1 | 1.8 | 9.8 | 9.7 | 6.2 | 5.8 | 6.9 | 5.3
12 | O=C1NC(=O)[C@@H](c2cn3c4c(cccc24)CCC3)[C@@H]1c1c[nH]c2ccccc12 [Tivantinib] | 2.5 | 2.7 | 5.1 | 5 | 3.1 | 2.8 | 4.3 | 0 | 0.65 | 4.9 | 2.1 | 4.2 | 3.7 | 3.3 | 4.7 | 2.5
13 | COc1cc2nccc(Oc3ccc(NC(=O)Nc4cc(C)on4)c(Cl)c3)c2cc1OC [Tivozanib] | 1.5 | 2.3 | 0.3 | 3.3 | 2.2 | 1.9 | 0.4 | 0.5 | 0.9 | 2.8 | 3.2 | 1.9 | 3 | 0.5 | 5 | 1.2
14 | C[C@@H]1CCN(C(=O)CC#N)C[C@@H]1N(C)c1ncnc2[nH]ccc12 [Tofacitinib] | 0 | 0.7 | 0 | 0.1 | 0 | 0 | 0 | 0 | 0.5 | 0 | 0.3 | 0 | 0.7 | 0.7 | 0 | 0
15 | CN(C)CCOc1ccc(/C(=C(/CCCl)c2ccccc2)c2ccccc2)cc1 [Toremifene] | 1.9 | 7.4 | 4 | 7.1 | 5.3 | 4.3 | 3.8 | 5.2 | 7 | 3.3 | 2.2 | 2.2 | 5.3 | 2.4 | 6 | 5.3
16 | CC1=C(/C=C/C(C)=C/C=C/C(C)=C/C(=O)O)C(C)(C)CCC1 [Tretinoin] | 0 | 0.1 | 0 | 5.2 | 0 | 2 | 0 | 0 | 0 | 0 | 0.2 | 0 | 0 | 0 | 0 | 0
17 | NC(=S)N/N=C/c1ncccc1N [Triapine] | 2.3 | 1.8 | 0 | 1.7 | 2.4 | 1.7 | 0.9 | 0 | 1.15 | 2.2 | 6 | 3.2 | 3.5 | 5.1 | 4.2 | 2.4
18 | O=C(CCCCCCC(=O)Nc1ccc([C@H]2O[C@@H](CSc3nc(-c4ccccc4)c(-c4ccccc4)o3)C[C@@H](c3ccc(CO)cc3)O2)cc1)NO [Tubacin] | 0.4 | 4.1 | 0 | 0.4 | 4.6 | 4.2 | 0 | 2.9 | 0.25 | 0 | 0 | 0 | 0.3 | 0.4 | 0 | 5.4
19 | CN1CCc2c(c3ccccc3n2Cc2ccc(C(=O)NO)cc2)C1 [Tubastatin A] | 0 | 0 | 1.4 | 3.4 | 0.5 | 1.7 | 0.5 | 1.3 | 0.85 | 0 | 1.3 | 0 | 1.4 | 2.8 | 2.9 | 0.8
20 | COC(=O)c1ccc2c(c1)[nH]c1ncnc(NCCCN3CCCCC3)c12 [UM729] | 0.5 | 0 | 0.1 | 2.2 | 0 | 1.1 | 0 | 0.1 | 0.6 | 0.2 | 1.8 | 0 | 3.5 | 3.1 | 4.7 | 0
21 | COc1cc2c(NC3CCN(C(C)C)CC3)nc(C3CCCCC3)nc2cc1OCCCN1CCCC1 [UNC0638] | 2.1 | 1.7 | 4.3 | 5.4 | 0 | 3.5 | 1.9 | 3.1 | 7.6 | 4.7 | 6.5 | 0.2 | 0.5 | 0 | 5.5 | 2
22 | COc1cc2c(NC3CCN(C(C)C)CC3)nc(N3CCC(F)(F)CC3)nc2cc1OCCCN1CCCC1 [UNC0642] | 0 | 0.2 | 1.2 | 2.3 | 0 | 2.3 | 0.2 | 0.1 | 4.3 | 2.1 | 0.7 | 0 | 1.1 | 0 | 4 | 0.1
23 | O=C(c1ccc(C(=O)N2CCC(N3CCCC3)CC2)c(Nc2ccccc2)c1)N1CCC(N2CCCC2)CC1 [UNC1215] | 0 | 0 | 0 | 0 | 0 | 0 | 0 | 0 | 0 | 0 | 0 | 0 | 0.3 | 0 | 0 | 0
24 | CCCCNc1ncc(C(=O)NCc2ccc(-n3ccnc3)cc2)c(NC2CCC(O)CC2)n1 (centres undefined) [UNC2881] | 0 | 0 | 0 | 2.5 | 0.2 | 0 | 0 | 0 | 0.4 | 1.3 | 1.8 | 0 | 2.2 | 1.5 | 1.4 | 0.4
